Test results: PMC9259545, “Impact of poly-arginine peptides R18D and R18 on alteplase and tenecteplase thrombolysis in vitro, and neuroprotective stability to proteolysis” (Journal of Thrombosis and Thrombolysis, 2022)
Non-standard residues stand in square brackets, D forms with d. Residues, ends and D or L forms follow the SMILES beside them.

Assays:
plasmin = conditions: cited from earlier work
Source text: Given the potential future application of the R18D, R18 and NA-1 peptides as ischaemic stroke neurotherapeutics, it is important to establish if they interfere with current and future standard of care treatments, namely alteplase (tPA; recombinant tissue plasminogen activator) and tenecteplase (TNK; a modified version of tPA) thrombolysis, which are routinely administered prior to thrombectomy. […] NA-1 is also degraded by plasmin [8]. Together, these findings confirm that peptides synthesised with D-enantiomer amino acids such as R18D, unlike peptides synthesised with L-enantiomer amino acids are highly resistant to proteolytic degradation and are likely to retain their neuroprotective efficacy ...

trypsin (TrypLE Express) = trypsin (TrypLE Express) (Fusarium oxysporum, UniProt P35049)
Protocol: Rat primary cortical cultures were established from embryonic day 18–19 Sprague–Dawley rats (Animal Resources Centre, WA, Australia). Briefly, cortical tissue was dissociated in 2 mL Hanks balanced salt solution (HBBS; Life Technologies, Australia) supplemented with 1.3 mM L-cysteine, 10 U/mL papain (Sigma-Aldrich, Australia) and 50 U/mL DNase (Sigma-Aldrich) by trituration with a fire-polished pipette. Dissociated neurons were transferred to a 15-mL tube containing 13 mL of cold Dulbecco’s modified Eagle’s medium (DMEM; Life Technologies)/10% horse serum (Life Technologies) and centrifuged for 4 min at 300×g. Neurons were gently resuspended in 1.5 mL of cold Neurobasal (NB; Life Technologies)/2% B27 supplement (B27; Life Technologies) and the neuronal cell concentration adjusted to 50,000 neurons/70 μL and 70 μL inoculated into each well of a 96-well microtiter plate (Nunc, USA) pre-treated wells. Pre-treated wells were coated with 50 μL of poly-D-lysine (50 μg/mL; 70–150 K; Sigma-Aldrich) for 2–3 h at room temperature before being replaced with 50 μL of NB/B27, 4% fetal bovine serum (Life Technologies), 1% horse serum, 62.5 μM glutamic acid, 25 μM 2-mercaptoethanol, 30 μg/mL penicillin and 50 μg/mL streptomycin and placed in a CO2 incubator (5% CO2, 95% air balance, 98% humidity, 37 °C) prior to seeding with neurons. Neuronal cultures were maintained in CO2 incubator. On day in vitro four, 60 µL fresh NB/B27 containing the mitotic inhibitor cytosine arabinofuranoside (final concentration 0.15 μM; Sigma-Aldrich) was added and neuronal culture were used on day in vitro 11 to 13.
As an alternative to trypsin, TrypLE Express (Thermo Fischer Scientific, Australia) a synthetic serine protease with trypsin-like activity was used. […] Hereafter, TrypLE Express is referred to as trypsin.
Trypsin solution was added to an equal volume of MEM/2% B27 (T:MEM/B27). […] Following the incubation, 50 µL of the T:MEM/B27 or HBSS:MEM/B27 peptide solution was used to treat neuronal culture as described below for the glutamic acid excitotoxicity model. […]

[1] = intravenous dose 350 nmol/kg, healthy male and female rats; ref unpublished observation; cited from earlier work
TNK = target: T1, TNK (Homo sapiens, UniProt P00750, H332A/K331A/N152Q/R333A/R334A/T138N); test: Halo clot thrombolysis assay, TNK thrombolysis of whole blood clots; assay type: biochemical; conditions: TNK 5 nM, 27.5% human plasma
T1 construct: purchased Boehringer Ingelheim 50 mg vial
Protocol: We utilised a high throughput 96-well plate thrombolysis assay (“halo clot assay”) based on the procedure developed by Bonnard et al.. To reduce assay components the halo thrombus formation procedure was modified by replacing the original thrombotic mixture consisting of recombinant tissue factor and synthetic phospholipids reconstituted in 30 mM calcium, with thrombin, and reducing the pro-thrombotic volume (i.e., thrombin) from 5 to 3 µL and blood volume from 25 to 12 µL. Another modification to simplify clot formation consisted of adding the thrombin (3 µL; 500 nM in saline) to one side of the well and 12 µL of blood to the opposite side of well, before using a heat stretched Pasteur pipette with sealed end to mix the two liquids together using 4 to 5 circular motions around the edge of the well (halo clot). The original methodology involved adding the 5 μL of the clotting mixture to the edge of the well, and then using a micropipette to slowly release the 25 μL of blood to the edge of the well while at the same time maintaining a circular motion. Plates were incubated in a humidified 37 °C incubator for 1 h before use in the thrombolysis assay.
The thrombolysis assay involved adding 30 µL of Tris buffer (50 mM Tris–HCl, 100 mM NaCl, pH 7.4) with or without peptide followed by 55 µL Tris buffer containing tPA or TNK (5 nM final concentration) and 50% human plasma (final plasma concentration during thrombolysis 27.5%). The final concentration of peptide during thrombolysis ranged from 0.25 to 16 µM (note: an intravenous dose of R18D at 350 nmol/kg, which is likely to be neuroprotective achieves a Cmax of 0.7–0.9 µM in healthy male and female rats; unpublished observation). […] Following the addition of tPA or TNK into the wells, clot lysis was monitored over a 1-h period at 37 °C using a plate reader (Cytation5, BioTek, USA) by measuring absorbance at 510 nm every 1 min immediately after orbital shaking (205 rpm for 5 s). Controls consisted of wells with no thrombin (100% clot lysis; L100%) and wells with no tPA or TNK (0% clot lysis; L0%). At the 1-h time point, the percentage of thrombolysis (%T) in tPA or TNK treated samples (LTX) was calculated by transforming absorbance values based on the formula: % T = (LTX) − (L0%)/(L100%) − (L0%) × 100. In addition, during the 1-h period of clot lysis lag time and maximal activity (also known as maximum velocity or Vmax) of the thrombolysis reaction were calculated. The lag time is defined as the time interval between the first absorbance reading (time = 0) and the line of maximum slope of the thrombolysis reaction. The maximal activity is calculated from the maximum slope over the time course of the assay and reflects the capacity of an enzyme to catalyse a reaction (i.e., thrombolysis), with higher values representing higher catalytic activity (i.e., tPA/TNK induced plasmin thrombolysis).
For each thrombolysis assay, replicates for control wells (L0% and L100%) and tPA or TNK only treated wells consisted of n = 4–8. Replicates for tPA or TNK and peptide treated wells consisted of n = 4. For data analysis and graphical representations of the results, data from three independent thrombolytic assays were pooled. Studies consisted of R18D, R18 and NA-1 examined at the 0.5, 1, 2, 4, 8 or 16 µM concentrations performed concurrently on the same 96-well plate, in respective order. In addition, since R18D is known to be resistant to plasmin degradation and appeared to have the most impact on tPA or TNK thrombolysis, a separate set of three independent assays were performed for this peptide alone at concentrations of 0.25, 0.5, 1, 2, 4, 8 or 16 µM. Furthermore, the second dose study with R18D provided the opportunity to include a lower concentration (0.25 µM) of the peptide and to provide comparative data when only one peptide was examined in the thrombolysis assay per 96-well plate as opposed to examining the three peptides concurrently on the same plate. […]

[2] = separate dose study, R18D alone, 0.25-16 µM

T1 sequence (P00750 36-562 T138N/N152Q/K331A/H332A/R333A/R334A): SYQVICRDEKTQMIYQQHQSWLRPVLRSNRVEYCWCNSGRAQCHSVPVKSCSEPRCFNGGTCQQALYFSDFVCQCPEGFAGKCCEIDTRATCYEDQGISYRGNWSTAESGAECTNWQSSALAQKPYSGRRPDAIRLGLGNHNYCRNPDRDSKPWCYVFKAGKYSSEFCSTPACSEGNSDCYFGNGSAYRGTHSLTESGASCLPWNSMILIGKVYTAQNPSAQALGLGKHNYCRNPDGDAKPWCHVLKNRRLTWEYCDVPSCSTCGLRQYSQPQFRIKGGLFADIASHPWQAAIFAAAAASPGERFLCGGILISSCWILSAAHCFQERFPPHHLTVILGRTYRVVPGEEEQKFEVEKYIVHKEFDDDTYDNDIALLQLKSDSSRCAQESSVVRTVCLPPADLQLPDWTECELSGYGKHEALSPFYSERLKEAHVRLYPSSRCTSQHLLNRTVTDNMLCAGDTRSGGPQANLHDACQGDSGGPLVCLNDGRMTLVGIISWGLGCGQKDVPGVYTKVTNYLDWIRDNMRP
trypsin (TrypLE Express), sequence (P35049 25-248): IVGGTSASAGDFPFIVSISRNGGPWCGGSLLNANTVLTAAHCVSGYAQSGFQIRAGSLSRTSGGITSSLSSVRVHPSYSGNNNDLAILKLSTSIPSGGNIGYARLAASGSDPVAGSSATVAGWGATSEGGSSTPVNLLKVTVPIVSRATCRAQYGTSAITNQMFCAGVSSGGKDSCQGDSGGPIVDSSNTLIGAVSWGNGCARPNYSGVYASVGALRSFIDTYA

Which “Neuroprotective properties in the glutamic acid excitotoxicity injury model when pre-incubated with plasmin” value (plasmin) does the source give for `N=C(N)NCCC[C@@H](N)C(=O)N[C@H](CCCNC(=N)N)C(=O)N[C@H](CCCNC(=N)N)C(=O)N[C@H](CCCNC(=N)N)C(=O)N[C@H](CCCNC(=N)N)C(=O)N[C@H](CCCNC(=N)N)C(=O)N[C@H](CCCNC(=N)N)C(=O)N[C@H](CCCNC(=N)N)C(=O)N[C@H](CCCNC(=N)N)C(=O)N[C@H](CCCNC(=N)N)C(=O)N[C@H](CCCNC(=N)N)C(=O)N[C@H](CCCNC(=N)N)C(=O)N[C@H](CCCNC(=N)N)C(=O)N[C@H](CCCNC(=N)N)C(=O)N[C@H](CCCNC(=N)N)C(=O)N[C@H](CCCNC(=N)N)C(=O)N[C@H](CCCNC(=N)N)C(=O)N[C@H](CCCNC(=N)N)C(=O)O` [R18D] (H-[dR][dR][dR][dR][dR][dR][dR][dR][dR][dR][dR][dR][dR][dR][dR][dR][dR][dR]-OH) here?
The value was “retains its neuroprotective properties”.

And the “Sensitivity to proteolytic degradation by plasmin” value (plasmin)?
Its value is “not”.

What about the “Resistance to degradation by trypsin” value (trypsin (TrypLE Express)) of the same compound?
The value was “resistant to degradation by trypsin”.

And the “High-level neuroprotective efficacy after incubation with trypsin” value (trypsin (TrypLE Express); peptide 2 µM in 50% TrypLE Express : MEM/B27, 1 or 2 h or overnight (22-24 h), 37 °C CO2 incubator, then rat cortical neurons, glutamic acid 100 µM 5 min, MTS viability at 20-24 h, N = 4-8)?
The value was “displayed a high-level neuroprotective efficacy”.

What about the Cmax [1] of the same compound?
The Cmax was 700 to 900 nM.

What about the “Effect on TNK thrombolysis maximal activity vs TNK control” value (TNK; concurrent study, 0.5-16 µM peptide) of the same compound?
The value was “did not significantly impact TNK thrombolysis maximal activity”.

And the “Increase in TNK lag time” value (TNK; peptide 4 µM, concurrent study, 37 °C)?
The value was 6.64 min.

And the “Decrease in TNK thrombolysis” value (TNK; peptide 4 µM, concurrent study, 37 °C, 1 h, p = 0.022)?
The value was 9.35%.

What about the “Increase in TNK lag time” value (TNK; peptide 8 µM, concurrent study, 37 °C) of the same compound?
Its value is 9.9 min.

And the “Decrease in TNK thrombolysis” value (TNK; peptide 8 µM, concurrent study, 37 °C, 1 h, p = 0.044)?
Its value is 8.71%.

And the “Increase in TNK lag time” value (TNK; peptide 16 µM, concurrent study, 37 °C)?
Its value is 8.76 min.

And the “Effect on TNK lag time vs TNK control” value (TNK; [2])?
The value was “did not impact TNK lag time at any concentration”.

And the “Effect on TNK thrombolysis maximal activity vs TNK control” value (TNK; [2])?
Its value is “did not significantly impact TNK thrombolysis maximal activity at any concentration”.

And the “Effect on percentage TNK thrombolysis at 1 h vs TNK control” value (TNK; separate dose study, R18D alone, 0.25-16 µM, 37 °C, 1 h)?
The value was “did not inhibit TNK thrombolysis”.
